According to patent US9957247B2, “SecA inhibitors and methods of making and using thereof” (Georgia State University Research Foundation, Inc., priority 2012, dated 2018):
Converted amounts (≈) assume the structure as drawn. Where two headings read alike, the source gives them in different places.

Tests used:
S. aureus N315 = assay: Bacteriostatic effect, S. aureus N315; details: Staphylococcus aureus, N315, read-out: Bacteriostatic effect, MIC, S. aureus N315
MtbSecA = MtbSecA (Mycobacterium tuberculosis, UniProt P9WGP5); assay: cell-based
SaSecA1 [1] = biological target: T1, SaSecA1 (Staphylococcus aureus, UniProt O06446); details: read-out: IC50, ATPase activity, SaSecA1; Table 7
T1 sequence (O06446 1-843): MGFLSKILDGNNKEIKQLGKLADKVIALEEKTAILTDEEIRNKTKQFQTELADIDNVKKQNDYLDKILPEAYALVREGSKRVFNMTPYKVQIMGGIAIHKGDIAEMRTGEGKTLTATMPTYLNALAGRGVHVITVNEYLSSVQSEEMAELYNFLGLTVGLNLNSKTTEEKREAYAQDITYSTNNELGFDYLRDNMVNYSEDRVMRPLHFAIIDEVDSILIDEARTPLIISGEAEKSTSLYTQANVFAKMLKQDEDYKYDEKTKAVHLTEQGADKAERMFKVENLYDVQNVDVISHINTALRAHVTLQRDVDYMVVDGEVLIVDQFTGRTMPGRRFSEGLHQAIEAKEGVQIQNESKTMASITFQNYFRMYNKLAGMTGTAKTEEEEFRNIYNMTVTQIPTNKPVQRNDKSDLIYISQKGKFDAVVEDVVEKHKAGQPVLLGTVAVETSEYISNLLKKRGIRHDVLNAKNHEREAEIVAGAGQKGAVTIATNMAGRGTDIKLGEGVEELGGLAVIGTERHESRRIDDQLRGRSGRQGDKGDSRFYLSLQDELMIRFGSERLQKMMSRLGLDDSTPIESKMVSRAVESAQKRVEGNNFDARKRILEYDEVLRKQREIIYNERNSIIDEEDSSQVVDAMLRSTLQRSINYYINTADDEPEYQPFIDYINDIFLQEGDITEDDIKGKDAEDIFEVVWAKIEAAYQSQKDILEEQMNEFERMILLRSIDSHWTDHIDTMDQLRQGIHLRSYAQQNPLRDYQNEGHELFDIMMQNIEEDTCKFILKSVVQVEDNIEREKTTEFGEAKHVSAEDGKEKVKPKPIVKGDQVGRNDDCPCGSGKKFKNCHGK

BsSecA2 = details: read-out: IC50, Intrinsic ATPase, BsSecA2; Table 1
EcSecA [2] = biological target: T2, EcSecA (Escherichia coli, UniProt P10408); assay: biochemical; set-up: species or system E. coli; details: IC50, Intrinsic ATPase, Table 1, full-length EcSecA
Target sequence in this assay (P10408 whole entry): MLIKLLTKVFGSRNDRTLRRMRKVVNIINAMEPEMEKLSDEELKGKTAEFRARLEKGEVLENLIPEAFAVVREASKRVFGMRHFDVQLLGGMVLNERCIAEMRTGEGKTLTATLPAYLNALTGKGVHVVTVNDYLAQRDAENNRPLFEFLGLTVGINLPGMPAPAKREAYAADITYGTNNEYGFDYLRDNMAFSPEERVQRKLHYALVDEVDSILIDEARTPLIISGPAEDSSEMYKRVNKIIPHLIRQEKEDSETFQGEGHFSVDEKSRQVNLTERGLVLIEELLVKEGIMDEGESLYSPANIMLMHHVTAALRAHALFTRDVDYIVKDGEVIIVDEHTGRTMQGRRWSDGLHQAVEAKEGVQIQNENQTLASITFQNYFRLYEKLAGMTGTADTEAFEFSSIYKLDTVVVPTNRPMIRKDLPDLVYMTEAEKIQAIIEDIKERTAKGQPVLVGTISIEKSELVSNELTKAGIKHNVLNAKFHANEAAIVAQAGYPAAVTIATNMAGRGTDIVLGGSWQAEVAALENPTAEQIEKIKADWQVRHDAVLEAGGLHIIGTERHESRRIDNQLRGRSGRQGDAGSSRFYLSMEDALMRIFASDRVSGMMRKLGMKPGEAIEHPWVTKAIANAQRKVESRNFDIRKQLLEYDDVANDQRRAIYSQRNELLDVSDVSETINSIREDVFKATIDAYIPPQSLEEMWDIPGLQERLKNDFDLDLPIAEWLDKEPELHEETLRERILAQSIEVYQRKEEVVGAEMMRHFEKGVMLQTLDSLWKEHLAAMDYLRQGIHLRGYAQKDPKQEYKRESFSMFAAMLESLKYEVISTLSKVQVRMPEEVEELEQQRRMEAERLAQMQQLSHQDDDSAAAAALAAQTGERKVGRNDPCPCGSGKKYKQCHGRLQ

PaSecA = PaSecA (Pseudomonas aeruginosa, UniProt Q9LCT3); assay: cell-based; format: cell-based; details: IC50, Ion Channel activity, PASecA, Table 1
S. aureus Mu3 = assay: Bacteriostatic effect, S. aureus Mu3; details: Staphylococcus aureus, MU3, read-out: Bacteriostatic effect, MIC, S. aureus Mu3
SpSecA = SpSecA (Streptococcus pyogenes, UniProt Q99Y96); format: cell-based; details: read-out: IC50, Ion Channel activity, SpSecA
S. aureus 6538 [3] = assay: Bacteriostatic effect, S. aureus 6538; details: Staphylococcus aureus, 6538, read-out: Bacteriostatic effect, MIC, S. aureus 6538
S. aureus Mu50 [4] = assay: Bactericidal effect, S. aureus Mu50; details: 9 μg/ml, 1 hour at 37° C., FIG. 5
EcSecA [5] = biological target: T2, EcSecA; assay: biochemical; details: IC50, Protein Translocation, Table 1
Target sequence in this assay (P0AG99 whole entry): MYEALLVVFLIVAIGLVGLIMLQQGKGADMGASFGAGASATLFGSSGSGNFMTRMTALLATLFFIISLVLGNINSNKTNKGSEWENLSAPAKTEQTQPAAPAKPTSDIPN
Target sequence in this assay (P10408 whole entry): as the sequence (P10408 whole entry) above
Target sequence in this assay (P0AGA2 whole entry, further chain): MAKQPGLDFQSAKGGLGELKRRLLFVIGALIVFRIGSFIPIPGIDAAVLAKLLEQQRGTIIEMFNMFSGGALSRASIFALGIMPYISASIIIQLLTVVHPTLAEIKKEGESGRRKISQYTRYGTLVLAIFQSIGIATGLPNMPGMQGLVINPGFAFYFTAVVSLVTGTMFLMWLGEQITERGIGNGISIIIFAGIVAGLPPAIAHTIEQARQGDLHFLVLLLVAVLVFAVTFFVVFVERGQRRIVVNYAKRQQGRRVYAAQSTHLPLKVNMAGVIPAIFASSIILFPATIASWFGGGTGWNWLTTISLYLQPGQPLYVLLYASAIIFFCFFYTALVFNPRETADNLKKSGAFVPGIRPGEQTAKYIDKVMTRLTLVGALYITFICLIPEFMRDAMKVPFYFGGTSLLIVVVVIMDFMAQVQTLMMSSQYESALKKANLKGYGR
Target sequence in this assay (P0AG96 whole entry, further chain): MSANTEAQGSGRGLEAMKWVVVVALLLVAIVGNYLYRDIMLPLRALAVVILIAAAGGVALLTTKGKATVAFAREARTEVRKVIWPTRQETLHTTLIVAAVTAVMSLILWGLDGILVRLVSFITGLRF

EcSecA N68 = EcSecA N68 (Escherichia coli, UniProt P10408); assay: biochemical; format: biochemical, E. coli
EcSecA [6] = biological target: T2, EcSecA; assay: cell-based
Target sequence in this assay (P10408 whole entry): as the sequence (P10408 whole entry) above

[7] = tested on: S. aureus deletion strains (NorA−, MepA−) and strains (NorA++, MepA++) with over-expressed efflux pumps; assay: Antimicrobial effect with deletion or over expression of efflux pumps in S. aureus
SaSecA1 [8] = biological target: T1, SaSecA1; assay: cell-based
EcSecA [9] = biological target: T2, EcSecA; assay: biochemical; details: IC50, Translocation ATPase, Table 1
Target sequence in this assay (P0AG99 whole entry): as the sequence (P0AG99 whole entry) above
Target sequence in this assay (P10408 whole entry): as the sequence (P10408 whole entry) above
Target sequence in this assay (P0AGA2 whole entry, further chain): as the sequence (P0AGA2 whole entry, further chain) above
Target sequence in this assay (P0AG96 whole entry, further chain): as the sequence (P0AG96 whole entry, further chain) above

BsSecA = BsSecA (Bacillus subtilis, UniProt P28366); assay: cell-based; set-up: species or system B. subtilis; details: IC50, Ion Channel activity, BsSecA, Table 1
S. aureus 8325-4 = assay: Bacteriostatic effect, S. aureus 8325-4 (WT); details: Staphylococcus aureus, 83254, read-out: Bacteriostatic effect, MIC, WT 8325-4
B. anthracis Sterne = assay: microbe, parasite or virus in culture; format: cell-based; details: Bacillus anthracis, read-out: Bacteriostatic MIC95, B. anthracis Sterne
BaSecA1 = BaSecA1 (Bacillus anthracis, UniProt Q81X26); assay: cell-based; details: IC50, Ion Channel activity, BGaSecA 1
[10] = tested on: secretion of α-hemolysin, enterotoxin B and TSST-1 by S. aureus Mu50; format: cell-based
S. aureus 6538 [11] = assay: Bactericidal effect, S. aureus 6538; details: 9 μg/ml, 1 hour at 37° C., FIG. 5
S. aureus Mu50 [12] = assay: Bacteriostatic effect, S. aureus Mu50; details: for MIC: Staphylococcus aureus

Sequence of MtbSecA (P9WGP5 whole entry): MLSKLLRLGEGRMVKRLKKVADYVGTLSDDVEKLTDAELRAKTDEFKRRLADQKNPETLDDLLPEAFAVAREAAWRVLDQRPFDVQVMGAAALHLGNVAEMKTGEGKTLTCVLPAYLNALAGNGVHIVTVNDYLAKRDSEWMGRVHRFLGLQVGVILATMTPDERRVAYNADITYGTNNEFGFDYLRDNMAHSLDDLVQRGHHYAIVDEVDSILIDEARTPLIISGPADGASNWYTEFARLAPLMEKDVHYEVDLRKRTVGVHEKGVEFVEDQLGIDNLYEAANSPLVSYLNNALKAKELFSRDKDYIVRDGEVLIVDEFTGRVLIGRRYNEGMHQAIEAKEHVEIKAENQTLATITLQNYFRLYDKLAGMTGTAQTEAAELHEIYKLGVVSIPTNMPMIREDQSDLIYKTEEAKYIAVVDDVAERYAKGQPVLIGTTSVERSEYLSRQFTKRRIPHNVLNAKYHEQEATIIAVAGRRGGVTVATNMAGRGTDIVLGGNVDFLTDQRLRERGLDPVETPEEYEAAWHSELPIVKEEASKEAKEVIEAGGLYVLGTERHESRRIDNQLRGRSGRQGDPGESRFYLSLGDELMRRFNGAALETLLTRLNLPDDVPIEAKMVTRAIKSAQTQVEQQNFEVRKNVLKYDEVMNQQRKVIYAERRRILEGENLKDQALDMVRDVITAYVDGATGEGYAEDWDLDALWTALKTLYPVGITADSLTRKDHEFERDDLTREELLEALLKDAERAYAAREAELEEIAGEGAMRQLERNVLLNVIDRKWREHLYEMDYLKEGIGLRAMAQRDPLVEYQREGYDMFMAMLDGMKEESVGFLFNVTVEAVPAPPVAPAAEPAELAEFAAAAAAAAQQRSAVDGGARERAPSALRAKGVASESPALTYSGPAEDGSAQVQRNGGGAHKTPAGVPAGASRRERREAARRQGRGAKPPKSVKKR
Sequence of BaSecA1 (Q81X26 whole entry, looked up): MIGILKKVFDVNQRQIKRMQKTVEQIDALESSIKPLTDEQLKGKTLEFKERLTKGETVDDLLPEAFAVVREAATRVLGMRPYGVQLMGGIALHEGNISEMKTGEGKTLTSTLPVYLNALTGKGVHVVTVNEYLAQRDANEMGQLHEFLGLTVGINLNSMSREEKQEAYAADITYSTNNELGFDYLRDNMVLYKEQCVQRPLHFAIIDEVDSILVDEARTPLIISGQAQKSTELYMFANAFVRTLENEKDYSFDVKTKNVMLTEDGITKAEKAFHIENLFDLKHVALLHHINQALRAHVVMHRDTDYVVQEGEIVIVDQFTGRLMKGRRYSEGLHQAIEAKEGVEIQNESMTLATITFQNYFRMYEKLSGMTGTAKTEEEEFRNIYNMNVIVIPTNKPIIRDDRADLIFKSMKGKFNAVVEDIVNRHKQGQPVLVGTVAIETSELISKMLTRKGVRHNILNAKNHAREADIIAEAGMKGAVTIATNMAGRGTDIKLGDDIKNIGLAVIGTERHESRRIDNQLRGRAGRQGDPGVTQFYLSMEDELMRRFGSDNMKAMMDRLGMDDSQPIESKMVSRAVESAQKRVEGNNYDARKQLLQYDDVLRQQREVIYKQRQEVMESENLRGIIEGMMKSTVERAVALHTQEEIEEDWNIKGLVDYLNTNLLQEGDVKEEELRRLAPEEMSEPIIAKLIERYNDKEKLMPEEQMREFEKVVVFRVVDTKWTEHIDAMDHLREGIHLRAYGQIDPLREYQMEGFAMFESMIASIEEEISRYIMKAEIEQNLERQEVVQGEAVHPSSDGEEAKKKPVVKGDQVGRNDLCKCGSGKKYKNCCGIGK
Sequence of SpSecA (Q99Y96 whole entry): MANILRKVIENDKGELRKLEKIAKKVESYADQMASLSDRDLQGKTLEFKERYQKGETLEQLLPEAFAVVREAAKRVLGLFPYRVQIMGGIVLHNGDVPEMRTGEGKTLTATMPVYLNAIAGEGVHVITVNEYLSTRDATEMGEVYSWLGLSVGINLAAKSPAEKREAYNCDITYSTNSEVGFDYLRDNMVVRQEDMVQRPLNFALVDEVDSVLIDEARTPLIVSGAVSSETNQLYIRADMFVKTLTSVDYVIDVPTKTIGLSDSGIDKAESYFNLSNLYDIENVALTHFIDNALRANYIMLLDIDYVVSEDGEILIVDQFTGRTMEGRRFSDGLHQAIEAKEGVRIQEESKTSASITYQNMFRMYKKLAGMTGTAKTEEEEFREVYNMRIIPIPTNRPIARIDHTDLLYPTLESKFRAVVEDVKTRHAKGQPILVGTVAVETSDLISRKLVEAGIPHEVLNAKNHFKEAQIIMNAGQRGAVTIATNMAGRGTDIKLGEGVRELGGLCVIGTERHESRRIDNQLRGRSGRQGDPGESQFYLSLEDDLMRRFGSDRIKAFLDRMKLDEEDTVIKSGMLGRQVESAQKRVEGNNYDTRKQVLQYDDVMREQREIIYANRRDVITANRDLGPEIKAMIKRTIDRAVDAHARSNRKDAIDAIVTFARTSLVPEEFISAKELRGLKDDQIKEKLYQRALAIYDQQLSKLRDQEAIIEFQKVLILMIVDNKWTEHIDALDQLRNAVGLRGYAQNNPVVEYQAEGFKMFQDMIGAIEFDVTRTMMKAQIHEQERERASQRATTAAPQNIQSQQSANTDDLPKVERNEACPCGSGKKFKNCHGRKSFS

CCCCCCC1c2ccc(O)cc2Oc2cc(O)ccc21 [SCA-50]
MIC (S. aureus N315): 3.7 mg/L (≈ 12.4 µM) | IC50 (MtbSecA): 3 µM | IC50 (SaSecA1 [1]): 20 µM | IC50 (BsSecA2): 20 µM | IC50 (EcSecA [2]): 60 µM | IC50 (PaSecA): 3 µM | MIC (S. aureus Mu3): 3.7 mg/L (≈ 12.4 µM) | IC50 (SpSecA): 1.9 µM | MIC (S. aureus 6538 [3]): 3.7 mg/L (≈ 12.4 µM) | Bactericidal activity, log numbers killed, S. aureus Mu50 (S. aureus Mu50 [4]): more than 3 log numbers | IC50 (EcSecA [5]): 38 µM | IC50 (EcSecA N68): 4 µM | IC50 (EcSecA [6]): 2.3 µM | Change of MIC on overexpression or deletion of NorA or MepA [7]: did not significantly change | IC50 (SaSecA1 [8]): 1.1 µM | IC50 (SaSecA1 [8]; IC50, Ion-channel activity, SaSecA1, Table 7): 1.1 µM | IC50 (EcSecA [9]): 60 µM | IC50 (BsSecA): 2.5 µM | MIC (S. aureus 8325-4): 3.7 mg/L (≈ 12.4 µM) | MIC (B. anthracis Sterne): 1.7 mg/L (≈ 5.7 µM) | IC50 (BaSecA1): 1 µM | Amount of α-hemolysin, enterotoxin B, and TSST-1 in the supernatant [10]: significantly decreased | Bactericidal activity, log numbers killed, S. aureus 6538 (S. aureus 6538 [11]): 2 log numbers | MIC fold less than the MIC of ampicillin, kanamyin, erythromycin, and rifampicin (S. aureus Mu50 [12]; S. aureus Mu50): 250 fold | MIC (S. aureus Mu50 [12]; MU50, read-out: Bacteriostatic MIC95, S. aureus Mu50, Table 2): 2.4 mg/L | MIC (S. aureus Mu50 [12]; MU50, read-out: Bacteriostatic effect MIC, S. aureus Mu50, Table 10 and Example 4): 4 mg/L | MIC (S. aureus Mu50 [12]; MU50, read-out: Bacteriostatic effect, MIC, S. aureus Mu50, Table 8): 3.7 mg/L | MIC (S. aureus Mu50 [12]; MU50, read-out: MIC95 against drug resistant S. aureus Mu50): 2.4 µM | Bacteriostatic effect MIC, S. aureus Mu50 (S. aureus Mu50 [12]; Table 10 and text of Example 4): 3.7 mg/L
